Reference: article PMC10392058 (FEBS Open Bio, 2023)

Tests used:
MDCKII‐mock‐LV cells = experiment: MDCKII bidirectional permeability, mock transfected cells; type: in vitro ADME
MDCKII‐BCRP‐LV cells = target: T1, MDCKII‐BCRP‐LV cells (Homo sapiens, UniProt Q9UNQ0); experiment: MDCKII bidirectional permeability, BCRP expressing cells
T1 sequence (Q9UNQ0 1-655): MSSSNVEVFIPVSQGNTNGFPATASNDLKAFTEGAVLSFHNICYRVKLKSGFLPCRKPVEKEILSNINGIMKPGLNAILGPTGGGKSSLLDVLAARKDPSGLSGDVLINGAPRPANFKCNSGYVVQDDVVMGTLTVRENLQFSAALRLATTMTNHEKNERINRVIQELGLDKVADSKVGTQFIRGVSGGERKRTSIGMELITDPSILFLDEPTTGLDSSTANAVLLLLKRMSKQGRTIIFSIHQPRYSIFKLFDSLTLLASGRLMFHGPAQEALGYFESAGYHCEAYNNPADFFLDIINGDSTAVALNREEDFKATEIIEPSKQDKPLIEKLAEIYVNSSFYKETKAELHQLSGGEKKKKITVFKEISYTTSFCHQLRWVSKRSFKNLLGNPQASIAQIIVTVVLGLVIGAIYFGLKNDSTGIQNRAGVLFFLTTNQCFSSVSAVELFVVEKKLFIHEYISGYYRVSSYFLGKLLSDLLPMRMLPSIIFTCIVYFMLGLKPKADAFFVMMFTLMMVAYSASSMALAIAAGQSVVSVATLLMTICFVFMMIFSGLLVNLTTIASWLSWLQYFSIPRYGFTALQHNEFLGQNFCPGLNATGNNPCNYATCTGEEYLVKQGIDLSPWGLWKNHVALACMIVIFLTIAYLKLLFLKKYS

[1] = MDCKII bidirectional permeability, mock transfected cells; type: in vitro ADME; conditions: dog, MDCK
BCRP = target: T2, BCRP (Homo sapiens, UniProt Q9UNQ0); experiment: MDCKII bidirectional permeability, BCRP expressing cells; conditions: dog
T2 sequence (Q9UNQ0 1-655): T1 sequence (Q9UNQ0 1-655)

[2] = system: HXA3/MRP2‐driven neutrophil epithelial transmigration; experiment: HXA3/MRP2‐driven neutrophil transmigration assay (S. typhimurium‐stimulated T84 monolayer, MPO readout); type: cell-based, human; conditions: 100 μM probenecid (positive control); P = 0.0008
Protocol: As described under Materials and Methods, in the neutrophil transmigration assay, a polarized human intestinal cell line monolayer was grown on a transwell insert to mimic the intestinal epithelial barrier. The cells were then apically stimulated by the addition of pathogenic Salmonella typhimurium, eliciting HXA3 efflux via MRP2 into the apical side of the chamber. Fresh, unstimulated human neutrophils were added to the basolateral side of the monolayer, where they detected the HXA3 gradient and migrated through the epithelial monolayer to the apical side. They were then quantified by assay of myeloperoxidase (MPO), a neutrophil biomarker.
Following stimulation via pathogenic S. typhimurium to elicit HXA3 efflux, migration of fresh human neutrophils from the basolateral side of the polarized monolayer (in response to the HXA3 gradient) to the apical side was quantified by MPO activity assay. […]
In the neutrophil transmigration assay (a modified Boyden chamber assay), a polarized T84 human intestinal cell line monolayer was grown on a Transwell insert to mimic the intestinal epithelial barrier. […] Fresh human neutrophils, added to the basolateral side of the monolayer, detected the HXA3 gradient and migrated through the epithelial monolayer to the apical side, where they were quantified by assay of MPO activity, a neutrophil biomarker [47].

HXA3 release = system: HXA3 release; parameters: method as in PMID 19017997; conditions: 100 μM; cited from earlier work

Lucifer yellow [LY]
Papp A‐B (MDCKII‐mock‐LV cells; LY 40 μg·mL^−1): 0.20 ± 0.03 × 10^−6 cm·s^−1
Papp A‐B (MDCKII‐mock‐LV cells; LY 40 μg·mL^−1 + ADS051 14 mg·mL^−1 (TA applied apically)): 0.32 ± 0.09 × 10^−6 cm·s^−1
Papp A‐B (MDCKII‐mock‐LV cells; LY 40 μg·mL^−1 + ADS051 14 mg·mL^−1 (TA applied basolaterally)): 0.46 ± 0.09 × 10^−6 cm·s^−1
Papp A‐B (MDCKII‐BCRP‐LV cells; LY 40 μg mL^−1): 0.06 ± 0.01 × 10^−6 cm·s^−1
Papp A‐B (MDCKII‐BCRP‐LV cells; LY 40 μg mL^−1 + ADS051 14 mg mL^−1 (TA applied apically)): 0.21 ± 0.02 × 10^−6 cm·s^−1
Papp A‐B (MDCKII‐BCRP‐LV cells; LY 40 μg mL^−1 + ADS051 14 mg mL^−1 (TA applied basolaterally)): 0.19 ± 0.01 × 10^−6 cm·s^−1

COc1cc2nc(N3CCN(C(=O)c4ccco4)CC3)nc(N)c2cc1OC [Prazosin]
Papp A→B at 1 μM [1]: 147 ± 133 nm/s
Papp A→B at 1 μM (BCRP): 30.2 ± 8.4 nm/s
Papp B→A at 1 μM (BCRP): 531 ± 81.5 nm/s

CCCN(CCC)S(=O)(=O)c1ccc(C(=O)O)cc1 [probenecid]
neutrophil migration inhibition [2]: extremely significant
inhibition of HXA3 release (HXA3 release): effectively inhibits HXA3 release
